Test [1] deals with termites (Coptotermes formosanus, workers). Put plainly: Termite antifeeding test on treated filter paper (Test Example 2). The format is in vivo. Particulars: 10 mg of test compound on filter paper (33 mm in diameter); fifty termites; one week; tests repeated three times. The procedure: An acetone solution (1 ml) containing 10 mg of the test compound was dropped on filter paper (33 mm in diameter, Milk sediment disk 1026 produced by Toyo Roshi K.K.) and dried at room temperature overnight. The filter paper was set in a white plastic cup (35 mm in diameter) having one hole on side and one hole in bottom, wherein the diameter of the holes are about 3 mm and termites can easily go through the holes. The white plastic cup was put into the 200 ml-volume plastic cup having several holes on the bottom which was covered with gypsum in 2 cm thickness. Fifty termites (Coptotermes formosanus, workers) were put in the 200 ml-volume plastic cup and kept in the container, the bottom of which was filled with wet cotton wool. The container was covered for keeping wet therein. After one week, the filter paper was recovered, dried well at room temperature, and then the weight was measured. The decreasing ratio of the weight was calculated. The tests were repeated three times. For a reference, filter paper treated with only 1 ml of acetone was tested and the decreasing ratio of the weight was calculated in the same manner.

The test system is the same in test [2]. In words: Termite antifeeding test on treated Japanese black pine wood (Test Example 1). The format is in vivo. The conditions noted are these: 100 termites, 3 weeks in the dark. The procedure: A designated amount (10 mg or 100 mg) of octyl gallate was dissolved in 0.3 ml of acetone and uniformly spread on a piece of Japanese black pine wood (1 cm×1 cm×2 cm) with pipette. The wood was allowed to stand overnight at room temperature, dried at 60° C. in a thermostat for 3 days, and then the weight of the wood was measured. The bottom of a 200 ml-volume plastic cup having several holes on the bottom was covered with gypsum in 2 cm thickness. The wood prepared above and 100 termites (Coptotermes formosanus, workers) were put in the plastic cup and kept in the dark for 3 weeks. For that time, cotton wool containing water was set under the plastic cup, and the gypsum was kept wet through the hole. After 3 weeks, the wood was recovered, dried at 60° C. in a thermostat for 3 days, and then the weight of the wood was measured. The decreasing ratio of the weight was calculated. For a reference, a piece of Japanese black pine wood treated with only 0.3 ml of acetone was tested and the decreasing ratio of the weight was calculated in the same manner.

For `CCCCCCCCCCOC(=O)c1cc(O)c(O)c(O)c1` [Decyl gallate, decyl gallate], in test [1], the “The decreasing ratio of the weight (%)” value was found to be 0%.

With `CCCCCCCCCCCCOC(=O)c1cc(O)c(O)c(O)c1` [Dodecyl gallate], in test [1], the “The decreasing ratio of the weight (%)” value came to 1.13%.

Take `CCCCCCCCOC(=O)c1cc(O)c(O)c(O)c1` [octyl gallate, Octyl gallate]: the “The decreasing ratio of the weight (%)” value came out at 2.4% in test [2] (10 mg of octyl gallate on Japanese black pine wood (1 cm×1 cm×2 cm)) and 0.9% in test [2] (100 mg of octyl gallate on Japanese black pine wood (1 cm×1 cm×2 cm)).

The record behind these values is patent publication US20060009519A1, “Antifeeding method against insects” (SUMITOMO CHEMICAL COMPANY, LIMITED, priority 2004, published 2006).
